From patent publication US20120016019A1, “PHARMACEUTICAL COMPOSITION FOR TREATING OR PREVENTING CANCER” (priority 2010, published 2012)
Several values for one entry are separate records, joined by “and”; a condition that tells them apart may be missing. Equal values may be shown once. Read-outs that look alike come from different tables or passages of the source.

Key:
TT = test: XTT cell viability assay, TT; assay type: cell-based; conditions: for The absorbance, group - Blank: mean minus blank; for The absorbance: single value
Experimental: Cancer cell lines HCC 1419, MCF-7, MDA-MB-468, SKBR3, PC3, HT1299, Saos-2, C-6, AsPc, MDA-MB-231, RKO, HeLa and TT, and normal cell lines HME 50 HT, BJ and CCD-1074sk were tested for changes in metabolism (XTT assay) and cell death (cell counts).
Cells were seeded in a 96-well tissue culture plate at a density of 10,000 cells for normal cells and 5,000 cells for cancer cells. After incubation period, the formazan dye formed was quantitated using an ELISA reader. The optimal wavelength used in experiments was 500 nm, and it was measured at 0 h, 12 h, 24 h, 48 h, 4 d and 7 d, respectively. The obtained values were generated using the software SoftMax Pro 4.8.
The cell viability was calculated according to the manufacturer's instructions as follows (the term “blank” means XTT in medium only):
Cellular cytotoxicity was calculated according to the manufacturer's instructions as follows:

MDA-MB-231 [1] = test: Cell counts, MDA-MB-231; assay type: cell-based
Experimental: (§1) As a result, LC-50 curves were generated in the 1st week.
(§2) In the 2nd plate, 7 d of the 1st week (LC-50) is the same as 0 h of the 2nd week (recovery).
(§3) At 0 h of the 2nd week, medium was exchanged with untreated medium for the remainder of the experiment. The untreated controls were not measured in the 2nd week (recovery) due to overconfluence by the end of the 1st week. As a result, Recovery curves were generated in the 2nd week.

RKO [2] = test: Cell counts, RKO; assay type: cell-based
Experimental: as §1, §2, §3

HME 50 HT = assay type: cell-based; conditions: for cell counts: single count
Experimental: as §1, §2, §3
Human Mammary Epithelial (HME) cells were derived from adjacent normal tissue.

HeLa = conditions: human, 0 h, 220 nM
Experimental: (§4) Cells were plated into 48-well Corning CellBind™ plates at densities of 20,000 cells for normal cells and 10,000˜20,000 cells for cancer cells. 24 to 48 h after plating, cells were treated with the composition according to the invention at concentrations of 4.5e-2M. The first time point treated with the composition of the invention is 0 h. At 3 days after the first treatment with the composition of the invention, medium was changed and the composition of the invention at the same concentrations were added to the cultured cells.
(§5) Cells were harvested using Trypsin-EDTA at the designated time points. When total cells for each well were counted with a Beckman-Coulter Z1 Particle Characterization Unit, the vertical axis represents 1/20 of cell number in the Figures attached to the specification, while when counted with a Beckman-Coulter Vi-Cell, the vertical axis represents cell number in the Figures. Two 48-well plates were used per cell line, and they were measured at 0 h, 12 h, 24 h, 48 h, 4 d and 7 d, respectively.
(§6) The viability was determined by using the trypan blue staining in the well of cell counting.

RKO [3] = conditions: human, 220 nM
Experimental: as §4, §5, §6

SKBR3 = conditions: human, 220 nM
Experimental: as §4, §5, §6

MDA-MB-231 [4] = conditions: human, 0 h, 220 nM
Experimental: as §4, §5, §6

[5] = HME 50 HT, 1st week (LC50), 0 h
[6] = HME 50 HT, 1st week (LC50), 12 h
[7] = HME 50 HT, 1st week (LC50), 24 h
[8] = HME 50 HT, 1st week (LC50), 48 h
[9] = HME 50 HT, 1st week (LC50), 4 d
[10] = HME 50 HT, 1st week (LC50), 7 d

Q: What does the source list for `CC(=O)O[C@H]1C(=O)[C@@]2(C)[C@H]([C@H](OC(=O)c3ccccc3)[C@]3(O)C[C@H](OC(=O)[C@H](O)[C@@H](NC(=O)c4ccccc4)c4ccccc4)C(C)=C1C3(C)C)[C@]1(OC(C)=O)CO[C@@H]1C[C@@H]2O` [Taxol]?
A: The cytotoxicity (TT; 1st week (LC50), 0 h): 0.6095; The viability (TT; 1st week (LC50), 0 h): 0.3905; The absorbance, group - Blank (TT; 1st week (LC50), 0 h): 0.1760; The absorbance, Mean value (TT; 1st week (LC50), 0 h): 0.4394; The absorbance (TT; 1st week (LC50), 0 h): 0.4452 and 0.4456; The cytotoxicity (TT; 1st week (LC50), 12 h): −0.2604; The viability (TT; 1st week (LC50), 12 h): 1.2604; The absorbance, group - Blank (TT; 1st week (LC50), 12 h): 1.5590; The absorbance, Mean value (TT; 1st week (LC50), 12 h): 1.8224; The absorbance (TT; 1st week (LC50), 12 h): 1.512 and 1.5452; The cytotoxicity (TT; 1st week (LC50), 24 h): −0.0831; The viability (TT; 1st week (LC50), 24 h): 1.0831; The absorbance, group - Blank (TT; 1st week (LC50), 24 h): 2.2745; The absorbance, Mean value (TT; 1st week (LC50), 24 h): 2.5379; The cytotoxicity (TT; 1st week (LC50), 48 h): 0.5671; The viability (TT; 1st week (LC50), 48 h): 0.4329; The absorbance, group - Blank (TT; 1st week (LC50), 48 h): 1.1834; The absorbance, Mean value (TT; 1st week (LC50), 48 h): 1.4468; The absorbance (TT; 1st week (LC50), 48 h): 1.6834 and 1.3166; The cytotoxicity (TT; 1st week (LC50), 4 d): −0.3186; The viability (TT; 1st week (LC50), 4 d): 1.3186; The absorbance, group - Blank (TT; 1st week (LC50), 4 d): 1.9816; The cytotoxicity (TT; 1st week (LC50), 7 d): 0.5080; The viability (TT; 1st week (LC50), 7 d): 0.4920; The absorbance, group - Blank (TT; 1st week (LC50), 7 d): 0.9498; The absorbance, Mean value (TT; 1st week (LC50), 7 d): 1.2132; The absorbance (TT; 1st week (LC50), 7 d): 1.2763; The cytotoxicity (TT; 2nd week (recovery), 0 h): −3.3443; The viability (TT; 2nd week (recovery), 0 h): 4.3443; The absorbance, group - Blank (TT; 2nd week (recovery), 0 h): 1.9578; The absorbance, Mean value (TT; 2nd week (recovery), 0 h): 2.2212; The cytotoxicity (TT; 2nd week (recovery), 12 h): −0.1062; The viability (TT; 2nd week (recovery), 12 h): 1.1062; The absorbance, group - Blank (TT; 2nd week (recovery), 12 h): 2.3230; The absorbance, Mean value (TT; 2nd week (recovery), 12 h): 2.5864; The cytotoxicity (TT; 2nd week (recovery), 24 h): 0.5481; The viability (TT; 2nd week (recovery), 24 h): 0.4519; The absorbance, group - Blank (TT; 2nd week (recovery), 24 h): 1.2354; The absorbance, Mean value (TT; 2nd week (recovery), 24 h): 1.4988; The cytotoxicity (TT; 2nd week (recovery), 48 h): 0.6857; The viability (TT; 2nd week (recovery), 48 h): 0.3143; The absorbance, group - Blank (TT; 2nd week (recovery), 48 h): 0.4723; The absorbance, Mean value (TT; 2nd week (recovery), 48 h): 0.7357; The cytotoxicity (TT; 2nd week (recovery), 4 d): 0.8411; The viability (TT; 2nd week (recovery), 4 d): 0.1589; The absorbance, group - Blank (TT; 2nd week (recovery), 4 d): 0.3067; The absorbance, Mean value (TT; 2nd week (recovery), 4 d): 0.5701; The absorbance (TT; 2nd week (recovery), 4 d): 0.4887 and 0.7079 and 0.5136; The cytotoxicity (TT; 2nd week (recovery), 7 d): −3.3443; The viability (TT; 2nd week (recovery), 7 d): 4.3443; The absorbance, group - Blank (TT; 2nd week (recovery), 7 d): 1.9578; The absorbance, Mean value (TT; 2nd week (recovery), 7 d): 0.2634; The absorbance (TT; 2nd week (recovery), 7 d): 0.2616 and 0.2542 and 0.2744; cell counts (MDA-MB-231 [1]; 1st week (LC50), 0 h): 47000 and 42000 and 53000; cell counts, Mean value (MDA-MB-231 [1]; 1st week (LC50), 0 h): 47333; cell counts (MDA-MB-231 [1]; 1st week (LC50), 24 h): 32000 and 39000 and 22000; cell counts, Mean value (MDA-MB-231 [1]; 1st week (LC50), 24 h): 31000; cell counts (MDA-MB-231 [1]; 1st week (LC50), 48 h): 13000 and 16000 and 23000; cell counts, Mean value (MDA-MB-231 [1]; 1st week (LC50), 48 h): 17333; cell counts (MDA-MB-231 [1]; 1st week (LC50), 4 d): 19500 and 24000 and 26500; cell counts, Mean value (MDA-MB-231 [1]; 1st week (LC50), 4 d): 23333; cell counts, Mean value (MDA-MB-231 [1]; 1st week (LC50), 7 d): 9667; growth of the cell population (MDA-MB-231 [1]; 2nd week (recovery)): begins to grow and shows the sign of recovering; cell counts (MDA-MB-231 [1]; 2nd week (recovery), 0 h): 12500 and 17500 and 22000; cell counts, Mean value (MDA-MB-231 [1]; 2nd week (recovery), 0 h): 17333; cell counts (MDA-MB-231 [1]; 2nd week (recovery), 24 h): 16000 and 32000 and 24000; cell counts, Mean value (MDA-MB-231 [1]; 2nd week (recovery), 24 h): 24000; cell counts, Mean value (MDA-MB-231 [1]; 2nd week (recovery), 48 h): 24500; cell counts, Mean value (MDA-MB-231 [1]; 2nd week (recovery), 4 d): 22167; cell counts, Mean value (MDA-MB-231 [1]; 2nd week (recovery), 7 d): 32000; cell counts (RKO [2]; 1st week (LC50), 0 h): 48000 and 49000 and 54000; cell counts, Mean value (RKO [2]; 1st week (LC50), 0 h): 50333; cell counts (RKO [2]; 1st week (LC50), 24 h): 101600 and 98000 and 99800; cell counts, Mean value (RKO [2]; 1st week (LC50), 24 h): 99800; cell counts, Mean value (RKO [2]; 1st week (LC50), 48 h): 78733; cell counts (RKO [2]; 1st week (LC50), 4 d): 36000; cell counts, Mean value (RKO [2]; 1st week (LC50), 4 d): 36000; cell counts (RKO [2]; 1st week (LC50), 7 d): 38600 and 25400 and 22800; cell counts, Mean value (RKO [2]; 1st week (LC50), 7 d): 28933; cell counts (RKO [2]; 2nd week (recovery), 0 h): 57000 and 58000 and 53000; cell counts, Mean value (RKO [2]; 2nd week (recovery), 0 h): 56000; cell counts (RKO [2]; 2nd week (recovery), 24 h): 26000 and 31000 and 39000; cell counts, Mean value (RKO [2]; 2nd week (recovery), 24 h): 32000; cell counts (RKO [2]; 2nd week (recovery), 48 h): 35000 and 38000 and 30000; cell counts, Mean value (RKO [2]; 2nd week (recovery), 48 h): 34333; cell counts (RKO [2]; 2nd week (recovery), 4 d): 39000 and 31000 and 26000; cell counts, Mean value (RKO [2]; 2nd week (recovery), 4 d): 32000; cell counts, Mean value (RKO [2]; 2nd week (recovery), 7 d): 35000; number of normal cells (HME 50 HT): the number of cells did not increase, and was merely maintained for two weeks; cell counts, Mean value (HME 50 HT; [5]): 14667; cell counts (HME 50 HT; [5]): 12000 and 11000 and 21000; cell counts, Mean value (HME 50 HT; [6]): 16667; cell counts (HME 50 HT; [6]): 14000 and 23000 and 13000; cell counts, Mean value (HME 50 HT; [7]): 11333; cell counts (HME 50 HT; [7]): 14000 and 11000 and 9000; cell counts, Mean value (HME 50 HT; [8]): 15667; cell counts (HME 50 HT; [8]): 18000 and 11000; cell counts, Mean value (HME 50 HT; [9]): 9000; cell counts (HME 50 HT; [9]): 9000; cell counts, Mean value (HME 50 HT; [10]): 16667; cell counts (HME 50 HT; [10]): 17000 and 19000 and 14000; cell counts, Mean value (HME 50 HT; HME, 2nd week (recovery), 0 h): 16333; cell counts (HME 50 HT; HME, 2nd week (recovery), 0 h): 19000 and 17000 and 13000; cell counts, Mean value (HME 50 HT; HME, 2nd week (recovery), 12 h): 13667; cell counts (HME 50 HT; HME, 2nd week (recovery), 12 h): 13000 and 15000; cell counts, Mean value (HME 50 HT; HME, 2nd week (recovery), 24 h): 12667; cell counts (HME 50 HT; HME, 2nd week (recovery), 24 h): 12000 and 15000 and 11000; cell counts, Mean value (HME 50 HT; HME, 2nd week (recovery), 48 h): 17000; cell counts (HME 50 HT; HME, 2nd week (recovery), 48 h): 18000 and 16000 and 17000; cell counts, Mean value (HME 50 HT; HME, 2nd week (recovery), 4 d): 16333; cell counts (HME 50 HT; HME, 2nd week (recovery), 4 d): 18000 and 19000 and 12000; cell counts, Mean value (HME 50 HT; HME, 2nd week (recovery), 7 d): 16000; cell counts (HME 50 HT; HME, 2nd week (recovery), 7 d): 14000 and 19000 and 15000; viability (%), Mean value (HeLa): 75.4%; viability (%), Mean value (RKO [3]; 0 h): 40%; viability (%), Mean value (RKO [3]; 24 h): 43%; viability (%), Mean value (SKBR3; 24 h): 70%; viability (%) calculated from the cell counts (SKBR3; 48 h): 0%; viability (%), Mean value (SKBR3; 48 h): 17%; viability (%) calculated from the cell counts (SKBR3; 4 d): 0%; viability (%), Mean value (SKBR3; 4 d): 33%; viability (%), Mean value (SKBR3; 7 d): 50%; viability (%), Mean value (MDA-MB-231 [4]): 44.2%
